Assay results: US20090238768A1, “MULTIMERIC MAGNETIC RESONANCE CONTRAST AGENTS” (priority 2005, published 2009)
Read-outs that look alike come from different tables or passages of the source.

Legend:
[1] = longitudinal relaxivity rl in human blood plasma at 37° C.; assay type: physicochemical; settings: for longitudinal relaxivity rl calculated for a field of 3 T: calculated from the measurements at lower fields
Experimental: Compound 23 was dissolved in human blood plasma and the longitudinal relaxivity rl was measured at 37° C. at the following fields:
Compound 13 was dissolved in human blood plasma and the longitudinal relaxivity rl was measured at 37° C. at the following fields:
Compound 36 was dissolved in human blood plasma and the longitudinal relaxivity rl was measured at 37° C. at the following fields:
Compound 40 was dissolved in human blood plasma and the longitudinal relaxivity rl was measured at 37° C. at the following fields:
Compound 43 was dissolved in human blood plasma and the longitudinal relaxivity rl was measured at 37° C. at the following fields:
Compound 46 was dissolved in human blood plasma and the longitudinal relaxivity rl was measured at 37° C. at the following fields: […]

[2] = 3 T, human blood plasma, 37° C., published data; cited from earlier work

| Compound | longitudinal relaxivity rl ([1]; 0.235 T) [mM^1s^1] | longitudinal relaxivity rl ([1]; 0.47 T) [mM^1s^1] | longitudinal relaxivity rl ([1]; 1.41 T) [mM^1s^1] | longitudinal relaxivity rl calculated for a field of 3 T ([1]; 3 T) [mM^1s^1] | other results |
| --- | --- | --- | --- | --- | --- |
| Cc1c(C(=O)N(C)c2cccc(NC(=O)CN3CCN4CCN5CCN(CC3)CC(=O)[O][Gd]([O]C(=O)C4)[O]C(=O)C5)c2)c(C)c(C(=O)N(C)c2cccc(NC(=O)CN3CCN4CCN5CCN(CC3)CC(=O)[O][Gd]([O]C(=O)C4)[O]C(=O)C5)c2)c(C)c1C(=O)N(C)c1cccc(NC(=O)CN2CCN3CCN4CCN(CC2)CC(=O)[O][Gd]([O]C(=O)C3)[O]C(=O)C4)c1 [Compound 36, gadolinium derivative of 2,4,6-trimethylbenzene-1,3,5-tris-[(DO3A-(3-acetamidophenyl))-N-methyl-carboxamide]] | 9.3 | 8.8 | 7.3 | 8.5 | – |
| Cc1c(C(=O)N(C)c2cccc(NC(=O)C(C)N3CCN4CCN5CCN(CC3)CC(=O)[O][Gd]([O]C(=O)C5)[O]C(=O)C4)c2)c(C)c(C(=O)N(C)c2cccc(NC(=O)C(C)N3CCN4CCN5CCN(CC3)CC(=O)[O][Gd]([O]C(=O)C5)[O]C(=O)C4)c2)c(C)c1C(=O)N(C)c1cccc(NC(=O)C(C)N2CCN3CCN4CCN(CC2)CC(=O)[O][Gd]([O]C(=O)C4)[O]C(=O)C3)c1 (stereo not shown) [Compound 40] | 10.1 | 8.6 | 9.1 | 9 | – |
| Cc1c(C(=O)N(C)c2cccc(N(C)C(=O)C(C)N3CCN4CCN5CCN(CC3)CC(=O)[O][Gd]([O]C(=O)C5)[O]C(=O)C4)c2)c(C)c(C(=O)N(C)c2cccc(N(C)C(=O)C(C)N3CCN4CCN5CCN(CC3)CC(=O)[O][Gd]([O]C(=O)C5)[O]C(=O)C4)c2)c(C)c1C(=O)N(C)c1cccc(N(C)C(=O)C(C)N2CCN3CCN4CCN(CC2)CC(=O)[O][Gd]([O]C(=O)C4)[O]C(=O)C3)c1 (stereo not shown) [Compound 46] | 10.9 | 10.1 | 8.9 | 9 | – |
| CNC[C@H](O)[C@@H](O)[C@H](O)[C@H](O)CO.CNC[C@H](O)[C@@H](O)[C@H](O)[C@H](O)CO.O=C([O-])CN(CCN(CC(=O)[O-])CC(=O)O)CCN(CC(=O)[O-])CC(=O)O.[Gd+3] [Magnevist] | – | – | – | – | longitudinal relaxivity rl [2]: 3.3 mM^1s^1 |
| CNC[C@H](O)[C@@H](O)[C@H](O)[C@H](O)CO.CNC[C@H](O)[C@@H](O)[C@H](O)[C@H](O)CO.O=C([O-])CN(CCN(CC(=O)[O-])CC(=O)O)CCN(CC(=O)O)C(COCc1ccccc1)C(=O)[O-].[Gd+3] (stereo not shown) [Multihance] | – | – | – | – | longitudinal relaxivity rl [2]: 6.3 mM^1s^1 |
| gadolinium derivative of 1,3,5-tris-(N-(DO3A-acetamido)-N-methyl-4-amino-2-methyl-phenyl)-[1,3,5]triazinane-2,4,6-trione [Compound 23] | – | – | – | – | longitudinal relaxivity rl ([1]; 0.25 T): 10.7 mM⁻¹ s⁻¹; longitudinal relaxivity rl ([1]; 1.5 T): 11.6 mM^1s^1; longitudinal relaxivity rl ([1]; 2.35 T): 10.1 mM^1s^1; longitudinal relaxivity rl ([1]; 3 T): 9.9 mM^1s^1 |
| gadolinium derivative of 2,4,6-trimethylbenzene-1,3,5-tris-[N-methyl-((2-DO3A-propyl)-3-(N′-methyl-amidophenyl))-carboxamide)] [Compound 43] | 12 | 10.6 | 9 | 8.2 | – |
| gadolinium derivative of benzene-1,3,5-tris-[((DO3A-acetamido)-3-(N′-methylamido-phenyl))-carboxamide)] [Compound 13] | – | – | – | 9.0 | longitudinal relaxivity rl ([1]; 1.5 T): 9.2 mM^1s^1; longitudinal relaxivity rl ([1]; 2.35 T): 9.5 mM^1s^1 |
